Values joined by “and” are separate entries in the source; they are usually repeats but may differ in a detail not shown here. Equal values may be shown once. “Also recorded” adds a separate entry of the source.
Assays:
CD-1 mice = assay: Immunotoxicity--Multi-dose: survival, weight, organ and histopathology assessment; assay type: in vivo; conditions: for Organ weight, Kidney / Organ weight, Liver / Organ weight, Lung / Organ weight, Spleen / Organ weight, Tail: individual animals A, B
Method: The immunotoxicological potential of KCPBL was evaluated in this experiment in which the study drug was administered to CD-1 mice for fourteen days (100 or 1000 mg/kg/day), either perorally (by gavage) or intravenously (tail vein). On the fifteenth day, the mice were weighed and sacrificed. The spleen, lungs, liver, kidneys and thymus were removed from each animal, fixed in formalin and histopathologically evaluated. In addition, a differential white blood cell count was obtained for a peripheral blood sample as well as the following tests performed: spleen cell counts (performed with Coulter Counter) and lymphocyte stimulation assays using PHA, CON-A and PWM techniques.
CD-1 mice were obtained from Charles Rivers Laboratories. The mice were quarantined for at least one week in a separate holding room prior to use in this experiment. Five mice per treatment were used. The mice were housed in a Thoren positive pressure laminar flow Maximizer caging system with each case controlled for water and air flow. The mouse rooms are maintained on a 12-hour light/dark cycle at a constant temperature of 76° F.
KCPBL containing approximately 50:50 ratio of the two epimers as determined by HPLC and optical rotation analysis was used in this study. An amount of drug was calculated to deliver the equivalent of 100 or 1000 mg/kg, either by the oral or intravenous route. The average weight of the mice was 29.5 grams.
[…] Mice were administered KCPBL daily for a total of fourteen days via the oral (0.2 ml of a 147.5 mg/ml solution or a 29.5 mg/ml solution by gavage) and intravenous route (0.2 ml of 147.5 mg/ml solution or a 29.5 mg/ml solution by tail vein) to achieve a dose of 100 or 1000 mg/kg, respectively. The test dose was prepared fresh daily and dissolved in sterile non-pyrogenic saline. On the fifteenth day the mice were weighed, sacrificed, and the spleens, lungs, livers, kidneys and thymuses removed. These organs were weighed and, except for the spleens, the formalin-fixed organs were analyzed by a veterinary pathologist. Only two randomly-selected sets of animal organs per treatment group were histopathologically evaluated since the remaining three animals were used to isolate splenic lymphocytes for use in cellular immunoassays.
A leukocyte differential was obtained on peripheral blood samples and spleen cell counts (performed with Coulter Counter), and an IL-2 induction assessment as well as standard lymphocyte stimulation assays using PHA, CON-A and PWM conducted.
Survival was assessed through the fifteenth day. All the surviving mice were sacrificed on the fifteenth day, predetermined organs removed, place in formalin, and subjected to for histopathologic examination by a veterinary pathologist.
The individual spleens of three mice from control and test groups were processed to isolate lymphocytes and the protocols for lymphocyte blastogenesis, IL-2 induction and assay were performed. The remaining two mice in each group were sacrificed and their lungs, liver, kidney, and spleen were fixed in formalin and sent to AnMed Biosafe for histopathologic examination.

splenocytes = assay: Immunomodulation panel: total splenocyte counts, antigen stimulated mice; assay type: in vivo, C57BL/6J mice
Method: (§1) Daily intraperitoneal injections of KCPBL were administered to normal animals and immunological responsiveness to mitogens and specific antigen evaluated.
The test compound was weighed out immediately before use and dissolved in the injection vehicle. This solution was sterile-filtered using a 0.22 micron filter and the appropriate dose injected into mice in a 0.5 ml volume. The dose was individually calculated for each animal, based on animal weight on the first day of the experiment.
(§2) Inbred C57BL/6J mice were obtained from Jackson Laboratories, Bar Harbor, Me. The animals were held for one week before use in an experiment. Prior to commencement of a study, the animals were placed into groups and weighed.
Group size ten male mice per dosage group.
(§3) Doses and schedule--Doses were selected to bracket the range generally known to be immunostimulatory in past experiments, 1, 10, and […] daily for four days.
(§4) Immunization--All animals except for sham controls were injected with 0.5 ml of a 2% suspension of sheep erythrocyte on day zero. This occurred two days following any pretreatment and the day before the initiation of study drug administration.
Sacrifice--Animals were sacrificed by cervical dislocation on day five. […]
As an assessment of immunopathology in the above screening test panel, the cellularity of the spleen was evaluated by determination of the total number of splenocytes harvested. Humoral-mediated immunity was measured by enumerating IgM plaque-forming cells to the T-dependent antigen sheep erythrocytes. Cell-mediated immunity was evaluated as described above by determination of the ability of the splenocytes to produce the lymphokine interleukin-2 in response to stimulation by the mitogen concanavalin-A. Another measurement of cell-mediated immunity was the responsiveness of the splenic lymphocytes to the mitogens concanavalin-A (Con-A); phytohemagglutinin (PHA) and pokeweed mitogen (PWM) in the lymphocyte blastogenesis assay. […] The responsiveness of the cells was measured by the uptake of radiolabeled 14C-thymidine.

[1] = test system: IgM plaque-forming cells to sheep erythrocytes; assay: Immunomodulation panel: IgM plaque-forming response to SRBC; assay type: in vivo, C57BL/6J mice; set-up: Anti-SRBC Plaque Forming Cells: unit not given here
Method: as §1, §2, §3, §4
Sacrifice--Animals were sacrificed by cervical dislocation on day five. The spleens were surgically removed and the following immunological evaluations conducted.
As an assessment of immunopathology in the above screening test panel, the cellularity of the spleen was evaluated by determination of the total number of splenocytes harvested. Humoral-mediated immunity was measured by enumerating IgM plaque-forming cells to the T-dependent antigen sheep erythrocytes. Cell-mediated immunity was evaluated as described above by determination of the ability of the splenocytes to produce the lymphokine interleukin-2 in response to stimulation by the mitogen concanavalin-A. Another measurement of cell-mediated immunity was the responsiveness of the splenic lymphocytes to the mitogens concanavalin-A (Con-A); phytohemagglutinin (PHA) and pokeweed mitogen (PWM) in the lymphocyte blastogenesis assay. In the latter test, the activation and proliferation of the lymphocytes to the mitogens represents the capability of the cells to sequentially pass from G0 to G1 and the S phse of the cell cycle. The responsiveness of the cells was measured by the uptake of radiolabeled 14C-thymidine.

splenic lymphocytes = assay: Immunomodulation panel: lymphocyte blastogenesis (Con-A, PHA, PWM); assay type: in vivo, C57BL/6J mice; conditions: 100 mg/kg i.p.
[2] = group 2 (1000 mg/kg P.O.), 1000 mg/kg
[3] = group 3 (1000 mg/kg IV), 1000 mg/kg
[4] = group 5 (100 mg/kg IV), 100 mg/kg

Structure (SMILES): O=C1CCC(C2(O)C(=O)OC3C(O)COC32O)C1 (centres unmarked) [KCPBL]
- PMV:Mono ratio (CD-1 mice; 100 mg/kg IV (group 5)): 10/90
- PMV:Mono ratio (CD-1 mice; 1000 mg/kg IV (group 3)): 11/89
- PMV:Mono ratio (CD-1 mice; 1000 mg/kg P.O. (group 2)): 21/79
- generalized toxicity / immunotoxic effect (CD-1 mice; 100 or 1000 mg/kg, either route): None of the mice showed evidence of generalized toxicity; also recorded: no evidence of a immunotoxic effect
- weight loss (CD-1 mice; 100 or 1000 mg/kg/day, 14 days, i.v. or p.o.): No clinically significant weight loss
- survival / deaths (CD-1 mice; 14 days dosing): Except for treatment group 4 (KCPBL 100 mg/kg perorally), all animals survived to the conclusion of the trial; also recorded: In group 4, two animals were found dead on day 4 and another animal dead on day 10
- Organ weight, Kidney (CD-1 mice; [2]): 271.7 mg and 269.8 mg
- Organ weight, Liver (CD-1 mice; [2]): 1710 mg and 1780 mg
- Organ weight, Lung (CD-1 mice; [2]): 192.5 mg and 175.8 mg
- Organ weight, Spleen (CD-1 mice; [2]): 102.6 mg and 103.7 mg
- Organ weight, Tail (CD-1 mice; [2]): 236.2 mg and 229.1 mg
- Organ weight, Kidney (CD-1 mice; [3]): 287.1 mg and 225.3 mg
- Organ weight, Liver (CD-1 mice; [3]): 1760 mg and 1310 mg
- Organ weight, Lung (CD-1 mice; [3]): 209.1 mg and 177.1 mg
- Organ weight, Spleen (CD-1 mice; [3]): 110.8 mg and 75.6 mg
- Organ weight, Tail (CD-1 mice; [3]): 235.8 mg and 239.6 mg
- Organ weight, Kidney (CD-1 mice; [4]): 235.4 mg and 377.9 mg
- Organ weight, Liver (CD-1 mice; [4]): 1570 mg and 2350 mg
- Organ weight, Lung (CD-1 mice; [4]): 177.9 mg and 192.3 mg
- Organ weight, Spleen (CD-1 mice; [4]): 88.7 mg and 104.2 mg
- Organ weight, Tail (CD-1 mice; [4]): 215.1 mg and 248.2 mg
- Histopathology (lung, liver, kidney, spleen, thymus, tail) (CD-1 mice; groups 1, 2, 3, and 5): all tissues examined were considered to be within the normal range
- WBC differentials (CD-1 mice; peripheral blood, granulocyte and mononuclear cells): within normal limits
- organ systems (weights, histopathological assessments) (CD-1 mice; vs sham-injected controls): within normal weight limits
- Splenocytes (splenocytes; 1.0 mg/kg i.p.): 4.34 ± 0.7 ×10^7
- Splenocytes (splenocytes; 10 mg/kg i.p.): 3.59 ± 0.8 ×10^7
- Splenocytes (splenocytes; 100 mg/kg i.p.): 3.62 ± 0.4 ×10^7
- PFC increase, significance ([1]; 1 mg/kg): values higher than the control group but the difference was not statistically significant
- Anti-SRBC Plaque Forming Cells ([1]; 1.0 mg/kg i.p.): 192.8 ± 59.
- PFC increase, significance ([1]; 100 and 10 mg/kg): A significant increase in PFC
- Lymphocyte Blastogenesis, PHA (splenic lymphocytes): 5849 ± 1227 Counts per minute
- Lymphocyte Blastogenesis, RPMI (splenic lymphocytes): 83 ± 35 Counts per minute

— patent US5098933A, “Pharmaceutically useful Michael addition products of unsaturated aldehydes and ketones and ascorbic acid” (Theracel Corporation, priority 1990, dated 1992)
